Measured values published in US10568879B2 (GALAPAGOS NV, priority 2015, dated 2020).
Read-outs that look alike come from different tables or passages of the source.

Columns and labels:
GPR84 = target: T1, GPR84 (Homo sapiens, UniProt Q9NQS5); assay: GPR84 [35S]GTPγS binding assay; assay type: biochemical; conditions: 3,3′-diindolylmethane at EC80; membranes from stable cell line over expressing GPR84
T1 construct: expressed in transfected cells
How it was run: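 Antagonist-mode [35S]GTPγS binding on membranes from a GPR84-overexpressing stable line (GDP-preincubated), stimulated with 3,3′-diindolylmethane at EC80. Buffer 20 mM Tris pH 7.5, 5 mM MgCl2, 250 mM NaCl, saponin; 0.1 nM [35S]GTPγS, 90 min at room temperature, SPA bead read-out.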

human neutrophils = assay: Human neutrophil migration assay; assay type: cell-based; conditions: Homo sapiens, Neutrophil, read-out: Human neutrophil migration IC50
Procedure: The activity of GPR84 agonists and antagonists can therefore be assayed in a human neutrophil migration assay. The human neutrophil migration assay makes use of freshly isolated human neutrophils from buffy coats that are subsequently used in a functional chemotaxis assay setup. […] After 1 h of incubation at 37° C. and 5% CO2, the number of migrated neutrophils in the lower compartment can be quantified by measuring the ATP content using ATPlite™ Luminescence Assay System. A human buffy coat suspension is diluted with an equal volume of ice cold DPBS. 20 mL of the diluted buffy coat suspension is gently mixed with 4 mL of ACD buffer (140 mM citric acid, 200 mM sodium citrate and 220 mM dextrose). Then, 12 mL of a 6% dextran/0.9% NaCl solution (15 g dextran T2000 and 2.25 g NaCl dissolved in 250 mL H2O) is added to the mixture and the samples are inverted gently up to 20 times. The total volume is transferred to a new recipient and incubated at room temperature to allow sedimentation of red blood cells. The yellowish upper fraction is then transferred to a clean centrifugation tube and centrifuged for 12 min at 1300 rpm and 4° C. After centrifugation, the supernatant is discarded and the remaining cell pellet is rapidly resuspended in 12 mL of ice-cold H2O to perform a red blood cell lysis by osmotic burst. After 20 seconds, 4 mL of ice-cold 0.6 M KCl is added to restore salt concentration. Samples are mixed carefully and centrifuged for 6 min at 1300 rpm and 4° C. The supernatant is discarded and the red blood cell lysis procedure is repeated one more time. […] A neutrophil cell suspension of 8.9×10^6 cells per mL is prepared in chemotaxis buffer and 180 μL per well is plated in a 96-well V-bottom plate. 20 μL of test compound solution in chemotaxis buffer is added to the 180 μL cell suspension. The mixture is incubated at room temperature for 30 min with intermediate gentle resuspension of the cells after 15 min. […] After 1 h at 37° C., 5% CO2 in a humidified incubator, the upper plate of the Transwell® system is gently removed. […] After incubation, 270 μL of cell lysate is then transferred onto a white 96-well plate for quantification by a luminescence plate reader. The relative luminescent signal measured is considered linearly related to the number of cells having migrated from the upper compartment into the receiver well.

[1] = embelin at EC80 as chemotactic agent, 1 h at 37° C.

T1 sequence (Q9NQS5 whole entry): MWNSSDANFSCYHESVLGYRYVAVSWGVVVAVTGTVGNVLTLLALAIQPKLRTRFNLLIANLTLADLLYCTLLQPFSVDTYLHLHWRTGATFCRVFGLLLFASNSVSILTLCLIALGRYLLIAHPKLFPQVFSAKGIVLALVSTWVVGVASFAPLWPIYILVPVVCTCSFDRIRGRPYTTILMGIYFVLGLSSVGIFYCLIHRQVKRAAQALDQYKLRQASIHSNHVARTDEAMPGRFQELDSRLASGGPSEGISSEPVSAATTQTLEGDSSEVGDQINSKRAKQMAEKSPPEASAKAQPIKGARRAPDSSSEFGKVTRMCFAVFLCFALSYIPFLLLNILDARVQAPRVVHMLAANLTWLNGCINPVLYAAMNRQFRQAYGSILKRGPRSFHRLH

Row | IC50 (GPR84) [nM] | IC50 (human neutrophils; [1]) [nM] | IC50 (human neutrophils; 1 h) [nM] | Compound
1 | 0.01 to 100 | 0.01 to 100 | – | Cc1c2n(c(OC[C@@H]3COCCO3)cc1=O)CCc1cc(OCc3ccccn3)ccc1-2 [Compound 31, 4-[[(2S)-1,4-dioxan-2-yl]methoxy]-1-methyl-9-(2-pyridylmethoxy)-6,7-dihydrobenzo[b]quinolizin-2-one]
2 | 0.01 to 100 | 0.01 to 100 | – | Cc1c2n(c(OC[C@@H]3COCCO3)cc1=O)CCc1cc(OCc3cccc(OC(F)(F)F)c3)ccc1-2 [Compound 32, 4-[[(2S)-1,4-dioxan-2-yl]methoxy]-1-methyl-9-[[3-(trifluoromethoxy)phenyl]methoxy]-6,7-dihydrobenzo[a]quinolizin-2-one]
3 | 0.01 to 100 | 0.01 to 100 | – | Cc1c2n(c(OC[C@@H]3COCCO3)cc1=O)CCc1cc(OCc3ccccc3)ccc1-2 [Compound 33, 9-benzyloxy-4-[[(2S)-1,4-dioxan-2-yl]methoxy]-1-methyl-6,7-dihydrobenzo[a]quinolizin-2-one]
4 | 100 to 500 | 0.01 to 100 | – | Cc1c2n(c(NC[C@@H]3COCCO3)cc1=O)CCc1cc(OCC(F)F)ccc1-2 [Compound 35, 9-(2,2-difluoroethoxy)-4-[[(2R)-1,4-dioxan-2-yl]methylamino]-1-methyl-6,7-dihydrobenzo[b]quinolizin-2-one]
5 | 0.01 to 100 | 100 to 500 | – | Cc1c2n(c(NC[C@@H]3COCCO3)cc1=O)CCc1cc(OCC(F)(F)F)ccc1-2 [Compound 36, 4-[[(2R)-1,4-dioxan-2-yl]methylamino]-1-mehtyl-9-(2,2,2-trifluoroethoxy)-6,7-dihydrobenzo[a]quinolizin-2-one]
6 | 0.01 to 100 | 0.01 to 100 | – | Cc1c2n(c(OC[C@@H]3COCCO3)cc1=O)CCc1cc(OS(=O)(=O)C(F)(F)F)ccc1-2 [Compound 37, [4-[[(2S)-1,4-dioxan-2-yl]methoxy]-1-methyl-2-oxo-6,7-dihydrobenzo[a]quinolizin-9-yl] trifluoromethanesulfonate]
7 | 0.01 to 100 | 100 to 500 | – | Cc1c2n(c(OC[C@@H]3COCCO3)cc1=O)CCc1cc(OCc3cnn(C)c3)ccc1-2 [Compound 38, 4-[[(2S)-1,4-dioxan-2-yl]methoxy]-1-methyl-9-[(1-methylpyrazol-4-yl)methoxy]-6,7-dihydrobenzo[a]quinolizin-2-one]
8 | 100 to 500 | 0.01 to 100 | – | Cc1c2n(c(OC[C@@H]3COCCO3)cc1=O)CCc1cc(C3=CCOCC3)ccc1-2 [Compound 39, 9-(3,6-dihydro-2H-pyran-4-yl)-4-[[(2S)-1,4-dioxan-2-yl]methoxy]-1-methyl-6,7-dihydrobenzo[a]quinolizin-2-one]
9 | 0.01 to 100 | – | 0.01 to 100 | CCn1cc(-c2ccc3c(c2)CCn2c(OC[C@@H]4COCCO4)cc(=O)c(C)c2-3)cn1 [Compound 40, 4-[[(2S)-1,4-dioxan-2-yl]methoxy]-9-(1-ethylpyrazol-4-yl)-1-methyl-6,7-dihydrobenzo[a]quinolizin-2-one]
10 | 0.01 to 100 | 0.01 to 100 | – | Cc1c2n(c(OC[C@@H]3COCCO3)cc1=O)CCc1cc(C3CCOCC3)ccc1-2 [Compound 41, 4-[[(2S)-1,4-dioxan-2-yl]methoxy]-1-methyl-9-tetrahydropyran-4-yl-6,7-dihydrobenzo[a]quinolizin-2-one]
11 | 0.01 to 100 | 0.01 to 100 | – | Cc1c2n(c(NC[C@@H]3CCCO3)cc1=O)CCc1cc(OCC(F)(F)F)ccc1-2 [Compound 42, 1-methyl-4-[[(2S)-tetrahydrofuran-2-yl]methylamino]-9-(2,2,2-trifluoroethoxy)-6,7-dihydrobenzo[a]quinolizin-2-one]
12 | 0.01 to 100 | 0.01 to 100 | – | Cc1noc(COc2ccc3c(c2)CCn2c(OCC4CCCO4)cc(=O)c(C)c2-3)n1 (centres unmarked) [Compound 43, 1-methyl-9-[(3-methyl-1,2,4-oxadiazol-5-yl)methoxy]-4-(tetrahydrofuran-2-ylmethoxy)-6,7-dihydrobenzo[a]quinolizin-2-one]
13 | 0.01 to 100 | 0.01 to 100 | – | Cc1noc(COc2ccc3c(c2)CCn2c(OCC4CCCCO4)cc(=O)c(C)c2-3)n1 (centres unmarked) [Compound 44, 1-methyl-9-[(3-methyl-1,2,4-oxadiazol-5-yl)methoxy]-4-(tetrahydropyran-2-ylmethoxy)-6,7-dihydrobenzo[a]quinolizin-2-one]
14 | 0.01 to 100 | 100 to 500 | – | Cc1c2n(c(OCC3CCCO3)cc1=O)CCc1cc(OCc3ccccn3)ccc1-2 (centres unmarked) [Compound 45, 1-methyl-9-(2-pyridylmethoxy)-4-(tetrahydrofuran-2-ylmethoxy)-6,7-dihydrobenzo[a]quinolizin-2-one]
15 | 0.01 to 100 | 0.01 to 100 | – | Cc1c2n(c(OCC3CCCCO3)cc1=O)CCc1cc(OCc3ccccn3)ccc1-2 (centres unmarked) [Compound 46, 1-methyl-9-(2-pyridylmethoxy)-4-(tetrahydropyran-2-ylmethoxy)-6,7-dihydrobenzo[a]quinolizin-2-one]
16 | 0.01 to 100 | 0.01 to 100 | – | Cc1c2n(c(OCC3CCCCO3)cc1=O)CCc1cc(OCC3CCCOC3)ccc1-2 (centres unmarked) [Compound 48, 1-methyl-4-(tetrahydropyran-2-ylmethoxy)-9-(tetrahydropyran-3-ylmethoxy)-6,7-dihydrobenzo[a]quinolizin-2-one]
17 | 0.01 to 100 | 0.01 to 100 | – | Cc1c2n(c(OC[C@@H]3COCCO3)cc1=O)CCc1cc(OCC3CCCOC3)ccc1-2 (stereo partly drawn) [Compound 49, 4-[[(2S)-1,4-dioxan-2-yl]methoxy]-1-methyl-9-(tetrahydropyran-3-ylmethoxy)-6,7-dihydrobenzo[a]quinolizin-2-one]
18 | 0.01 to 100 | 0.01 to 100 | – | Cc1ccc(COc2ccc3c(c2)CCn2c(OCC4CCCO4)cc(=O)c(C)c2-3)cn1 (centres unmarked) [Compound 50, 1-methyl-9-[(6-methyl-3-pyridyl)methoxy]-4-(tetrahydrofuran-2-ylmethoxy)-6,7-dihydrobenzo[a]quinolizin-2-one]
19 | 0.01 to 100 | 0.01 to 100 | – | Cc1ccc(COc2ccc3c(c2)CCn2c(OCC4CCCCO4)cc(=O)c(C)c2-3)cn1 (centres unmarked) [Compound 51, 1-methyl-9-[(6-methyl-3-pyridyl)methoxy]-4-(tetrahydropyran-2-ylmethoxy)-6,7-dihydrobenzo[a]quinolizin-2-one]
20 | 0.01 to 100 | 0.01 to 100 | – | Cc1noc(COc2ccc3c(c2)CCn2c(OC[C@@H]4COCCO4)cc(=O)c(C)c2-3)n1 [Compound 58, 4-[[(2S)-1,4-dioxan-2-yl]methoxy]-1-methyl-9-[(3-methyl-1,2,4-oxadiazol-5-yl)methoxy]-6,7-dihydrobenzo[a]quinolizin-2-one]
21 | 0.01 to 100 | 0.01 to 100 | – | Cc1c2n(c(OC[C@@H]3COCCO3)cc1=O)CCc1cc(OCC(F)F)ccc1-2 [Compound 61, 9-(2,2-difluoroethoxy)-4-[[(2S)-1,4-dioxan-2-yl]methoxy]-1-methyl-6,7-dihydrobenzo[a]quinolizin-2-one]
22 | 0.01 to 100 | 100 to 500 | – | Cc1c2n(c(OC[C@@H]3COCCO3)cc1=O)CCc1cc(N3CCOCC3)ccc1-2 [Compound 63, 4-[[(2S)-1,4-dioxan-2-yl]methoxy]-1-methyl-9-morpholino-6,7-dihydrobenzo[a]quinolizin-2-one]
23 | 0.01 to 100 | 0.01 to 100 | – | Cc1c2n(c(OC[C@@H]3COCCO3)cc1=O)CCc1cc(N3CCC(F)(F)CC3)ccc1-2 [Compound 65, 9-(4,4-difluoro-1-piperidyl)-4-[[(2S)-1,4-dioxan-2-yl]methoxy]-1-methyl-6,7-dihydrobenzo[a]quinolizin-2-one]
24 | 0.01 to 100 | 0.01 to 100 | – | Cc1c2n(c(OC[C@@H]3COCCO3)cc1=O)CCc1cc(N3CCN(C(=O)C4CC4)CC3)ccc1-2 [Compound 69, 9-[4-(cyclopropanecarbonyl)piperazin-1-yl]-4-[[(2S)-1,4-dioxan-2-yl]methoxy]-1-methyl-6,7-dihydrobenzo[a]quinolizin-2-one]
25 | 0.01 to 100 | 0.01 to 100 | – | Cc1c2n(c(OC[C@@H]3COCCO3)cc1=O)CCc1cc(NC(=O)C3CC3)ccc1-2 [Compound 70, N-[4-[[(2S)-1,4-dioxan-2-yl]methoxy]-1-methyl-2-oxo-6,7-dihydrobenzo[a]quinolizin-9-yl]cyclopropanecarboxamide]
